Laboratory results: US8343983B2, “Substituted pyrazolo-pyrimidine compounds” (ArQule, Inc., priority 2009, dated 2013)
Where two headings read alike, the source gives them in different places.

Test system: cancer cells
Assay: MTS assay: inhibition of cell growth (formazan absorbance at 492 nm after 72 hours with test compound)
Type: cell-based
Conditions: inhibition class
Outline: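 DMEM with 1% FBS; cells seeded at 3000/well and grown 18 h at 37 °C, then exposed to compound for 72 h and to MTS/PMS for 4 h. IC50 is the concentration giving a 50% absorbance drop; grades are % inhibition bands.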

[1] = Homo sapiens, DLD-1 cells, read-out: DLD-1, MTS 72 hours at 10 uM
[2] = Homo sapiens, KATO III cells, read-out: KATO III, MTS 72 hours at 10 uM
[3] = Homo sapiens, MDA-MB-231 cells, read-out: MDA-MB-231, MTS 72 hours at 10 uM
[4] = Homo sapiens, NCI-H1299 cells, read-out: NCI-H1299, MTS 72 hours at 10 uM
[5] = Homo sapiens, PC-3 cells, read-out: PC-3, MTS 72 hours at 10 uM
[6] = PACA-2 cells, read-out: PACA-2, MTS 72 hours at 10 uM

| SMILES | inhibition at 10 µM [1] [%] | inhibition at 10 µM [2] [%] | inhibition at 10 µM [3] [%] | inhibition at 10 µM [4] [%] | inhibition at 10 µM [5] [%] | inhibition at 10 µM [6] [%] |
| --- | --- | --- | --- | --- | --- | --- |
| COc1cc(CNc2nc3c4c(n[nH]c4n2)CCN3Cc2ccccc2)cc(OC)c1 [Compound 82, 6-benzyl-N-(3,5-dimethoxybenzyl)-2,6,7,8-tetrahydro-1,2,3,5,6-pentaazaacenaphthylen-4-amine] | < 50 | < 50 | < 50 | < 50 | < 50 | < 50 |
| c1ccc(CN2CCN(c3nc4c5c(n[nH]c5n3)CCN4c3ccccc3)CC2)cc1 [Compound 217, 4-(4-benzylpiperazin-1-yl)-6-phenyl-2,6,7,8-tetrahydro-1,2,3,5,6-pentaazaacenaphthylene] | < 50 | < 50 | < 50 | < 50 | < 50 | < 50 |
| c1ccc(CN2CCc3n[nH]c4nc(NC5Cc6ccccc6C5)nc2c34)cc1 [Compound 17, 6-benzyl-N-(2,3-dihydro-1H-inden-2-yl)-2,6,7,8-tetrahydro-1,2,3,5,6-pentaazaacenaphthylen-4-amine] | 50 to 79 | 50 to 79 | < 50 | 50 to 79 | < 50 | 50 to 79 |
| COc1ccc(CN2CCc3nn(Cc4ccccc4)c4nc(SC)nc2c34)cc1 [Compound 129, 2-benzyl-6-(4-methoxybenzyl)-4-(methylsulfanyl)-2,6,7,8-tetrahydro-1,2,3,5,6-pentaazaacenaphthylene] | < 50 | < 50 | < 50 | < 50 | < 50 | < 50 |
| COc1ccc(CN2CCc3n[nH]c4nc(NCCc5c[nH]c6ccccc56)nc2c34)cc1 [Compound 104, N-[2-(1H-indol-3-yl)ethyl]-6-(4-methoxybenzyl)-2,6,7,8-tetrahydro-1,2,3,5,6-pentaazaacenaphthylen-4-amine] | 50 to 79 | 50 to 79 | < 50 | 50 to 79 | < 50 | < 50 |
| OCCN(Cc1ccccc1)c1nc2c3c(n[nH]c3n1)CCN2Cc1ccccc1 [Compound 62, 2-[benzyl(6-benzyl-2,6,7,8-tetrahydro-1,2,3,5,6-pentaazaacenaphthylen-4-yl)amino]ethanol] | < 50 | < 50 | 50 to 79 | < 50 | < 50 | < 50 |
| c1ccc(N2CCc3n[nH]c4nc(N5CCOCC5)nc2c34)cc1 [Compound 218, 4-morpholin-4-yl-6-phenyl-2,6,7,8-tetrahydro-1,2,3,5,6-pentaazaacenaphthylene] | < 50 | < 50 | < 50 | < 50 | < 50 | < 50 |
| c1ccc(CN2CCc3n[nH]c4nc(NC5CCC5)nc2c34)cc1 [Compound 49, 6-benzyl-N-cyclobutyl-2,6,7,8-tetrahydro-1,2,3,5,6-pentaazaacenaphthylen-4-amine] | < 50 | < 50 | 50 to 79 | < 50 | < 50 | < 50 |
| Clc1ccc(CCNc2nc3c4c(n[nH]c4n2)CCN3Cc2ccccc2)cc1 [Compound 61, 6-benzyl-N-[2-(4-chlorophenyl)ethyl]-2,6,7,8-tetrahydro-1,2,3,5,6-pentaazaacenaphthylen-4-amine] | 50 to 79 | < 50 | < 50 | 50 to 79 | < 50 | < 50 |
